The target of assay [1] is T1, Recombinant human p38α (MKK6-activated) (Homo sapiens, UniProt Q16539).
T1 construct: His; made in house
The experiment in a line: Time-resolved fluorescence resonance energy transfer (TR-FRET) kinase assay (standard or low volume). The format is biochemical. Also on record: key: Compounds are considered active in this assay if they demonstrate a pIC50 of greater than 4.6 up to about a pIC50 of greater than 10.0. The settings on record: MKK6-activated p38α 100 pM, GST-ATF2 400 nM, 120 minutes at room temperature; either assay format. As for the experimental part: It is noted that there are two assay formats shown above for the Fluorescence anisotropy kinase binding assay. The only difference between these two assays is the volume used and the plate type. […] The results described herein may have been performed in either assay format and are not differentiated as to which. […] TR-FRET Assay Time-Resolved Fluorescence Resonance Energy Transfer Kinase Standard Assay Recombinant human p38α was expressed as a His-tagged protein. To activate this protein, 3 μM unactivated p38α was incubated in 200 mM Hepes pH 7.4, 625 mM NaCl, 1 mM DTT with 27 nM active MKK6 (Upstate), 1 mM ATP and 10 mM MgCl2 The activity of the MKK6-activated p38α was assessed using a time-resolved fluorescence resonance energy transfer (TR-FRET) assay. Biotinylated-GST-ATF2 (residues 19-96, 400 nM final), ATP ([…]) and MgCl2 (5 mM final) in assay buffer (40 mM HEPES pH 7.4, 1 mM DTT) were added to wells containing 1 ul of various concentrations of compound or DMSO vehicle (3% final) in NUNC 384 well black plate. The reaction was initiated by the addition of MKK6-activated p38 (100 pM final) to give a total volume of 30 ul. The reaction was incubated for 120 minutes at room temperature, then terminated by the addition of 15 μl of 100 mM EDTA pH 7.4. Detection reagent (15 μl) in buffer (100 mM HEPES pH 7.4, 150 mM NaCl, 0.1% w/v BSA, 1 mM DTT) containing antiphosphothreonine-ATF2-71 polyclonal antibody (Cell Signalling Technology, Beverly Mass., USA) labelled with W-1024 europium chelate (Wallac OY, Turku, Finland), and APC-labelled streptavidin (Prozyme, San Leandro, Calif., USA) was added and the reaction was further incubated for 60 minutes at room temperature. The degree of phosphorylation of GST-ATF2 was measured using a Packard Discovery plate reader (Perkin-Elmer Life Sciences, Pangbourne, UK) as a ratio of specific 665 nm energy transfer signal to reference europium 620 nm signal. Time-Resolved Fluorescence Resonance Energy Transfer Kinase Low Volume Assay Recombinant human p38α was expressed as a His-tagged protein. To activate this protein, 3 μM unactivated p38α was incubated in 200 mM Hepes pH7.4, 625 mM NaCl, 1 mM DTT with 27 nM active MKK6 (Upstate), 1 mM ATP and 10 mM MgCl2 The activity of the MKK6-activated p38α was assessed using a time-resolved fluorescence resonance energy transfer (TR-FRET) assay. Biotinylated-GST-ATF2 (residues 19-96, 400 nM final), ATP (125 μM final) and MgCl2 ([…]) in assay buffer (40 mM HEPES pH 7.4, 1 mM DTT) were added to wells containing 0.1 μl of various concentrations of compound or DMSO vehicle (1.7% final) in Greiner low volume 384 well black plate. The reaction was initiated by the addition of MKK6-activated p38α (100 pM final) to give a total volume of 6 μl. The reaction was incubated for 120 minutes at room temperature, then terminated by the addition of 3 μl of detection reagent in buffer (100 mM HEPES pH 7.4, 150 mM NaCl, 0.1% w/v BSA, 1 mM DTT, 100 mM EDTA) containing antiphosphothreonine-ATF2-71 polyclonal antibody (Cell Signalling Technology, Beverly Mass., USA) labelled with W-1024 europium chelate (Wallac OY, Turku, Finland), and APC-labelled streptavidin (Prozyme, San Leandro, Calif., USA). The reaction was further incubated for 60 minutes at room temperature. The degree of phosphorylation of GST-ATF2 was measured using a BMG Rubystar plate reader (BMG, UK) as a ratio of specific 665 nm energy transfer signal to reference europium 620 nm signal. It is noted that there are two assay formats shown above for the Time-resolved fluorescence resonance energy transfer kinase assay. The only difference between these two assays is the volume used and the plate type. […] The results described herein may have been performed in either assay format and are not differentiated as to which. […] For purposes herein the HTRF assay and the Fluorescence anisotropy kinase binding assay: […]
In general terms: In TR-FRET formats the signal depends on donor and acceptor labels being close together.

For assay [2], the system named is influx of neutrophils to the lung in LPS-challenged rats. Nature of the assay: Rat LPS neutrophilia model. The format is in vivo. Particulars: intratracheal, LPS aerosol 100 ug/ml 15 min, lavage 4 hours later, in at least one of the range of conditions tested, significant p<0.05, nonsignificant p>0.05. In outline: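 Compound was given intratracheally (200 ul, suspension or dry powder) 15 min–24 hours before a 15 min aerosol of LPS (100 ug/ml). Bronchoalveolar lavage was taken 4 hours after challenge for differential cell counts. Values are % inhibition of neutrophils versus no-compound controls at a given concentration and pretreat time.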

Structures can show the parent of a compound that is named as a salt.

T1 sequence (Q16539 whole entry): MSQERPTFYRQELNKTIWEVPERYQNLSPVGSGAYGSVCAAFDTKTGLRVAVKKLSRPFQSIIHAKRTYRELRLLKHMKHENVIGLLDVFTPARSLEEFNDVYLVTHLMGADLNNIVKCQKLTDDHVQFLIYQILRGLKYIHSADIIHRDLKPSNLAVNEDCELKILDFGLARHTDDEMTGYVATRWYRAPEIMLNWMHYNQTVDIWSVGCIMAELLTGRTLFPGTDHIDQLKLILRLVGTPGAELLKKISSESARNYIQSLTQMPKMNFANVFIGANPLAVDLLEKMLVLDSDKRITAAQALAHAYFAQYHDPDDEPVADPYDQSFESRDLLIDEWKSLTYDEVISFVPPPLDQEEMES

In the case of `CCN(CC)CCCNc1nc(-c2cc(C(=O)O)cc(F)c2C)c2ccc(=O)n(-c3c(F)cccc3F)c2n1` [179(b), 3-[2-{[3-(diethylamino)propyl]amino}-8-(2,6-difluorophenyl)-7-oxo-7,8-dihydropyrido[2,3-d]pyrimidin-4-yl]-5-fluoro-4-methylbenzoic acid trifluoroacetate], the “pIC50, reported as active” value in assay [1] was “active”.
Same read-out and setting: in the case of `Cc1ccc(NC(=O)c2ccc(Cl)nc2)cc1-c1nc(N2CCC(N)CC2)nc2c1ccc(=O)n2-c1c(F)cccc1F` [Example 15, N-{3-[2-(4-amino-1-piperidinyl)-8-(2,6-difluorophenyl)-7-oxo-7,8-dihydropyrido[2,3-d]pyrimidin-4-yl]-4-methylphenyl}-6-chloro-3-pyridinecarboxamide] it was “active”.
For `CCCNC(=O)c1ccc(C)c(-c2nc(NCCNC)nc3c2ccc(=O)n3-c2c(F)cccc2F)c1` [56(d), 3-(8-(2,6-difluorophenyl)-2-{[2-(methylamino)ethyl]amino}-7-oxo-7,8-dihydropyrido[2,3-d]pyrimidin-4-yl)-4-methyl-N-propylbenzamide], the “pIC50, reported as active” value in assay [1] is “active”. In addition, the “inhibition of neutrophilia (neutrophil levels in lung lavage relative to no compound controls)” value in assay [2] is “statistically significant inhibition”.
`Cc1ccc(NC(=O)c2cccs2)cc1-c1nc(NC2CC(C)(C)NC(C)(C)C2)nc2c1ccc(=O)n2-c1c(F)cccc1F` [Example 9, N-(3-{8-(2,6-difluorophenyl)-7-oxo-2-[(2,2,6,6-tetramethyl-4-piperidinyl)amino]-7,8-dihydropyrido[2,3-d]pyrimidin-4-yl}-4-methylphenyl)-2-thiophenecarboxamide]: in assay [1], the “pIC50, reported as active” value was “active”.
On to `CCN(CC)CCCNc1nc(-c2cccc(C(=O)NC)c2)c2ccc(=O)n(-c3c(F)cccc3F)c2n1` [193(b), 3-[2-{[3-(diethylamino)propyl]amino}-8-(2,6-difluorophenyl)-7-oxo-7,8-dihydropyrido[2,3-d]pyrimidin-4-yl]-N-methylbenzamide], for which the “pIC50, reported as active” value in assay [1] was “active”.
The same measure, in the same setting: then `CCN(CC)CCCNc1nc(-c2cccc(C(=O)O)c2)c2ccc(=O)n(-c3c(F)cccc3F)c2n1` [193(a), 3-[2-{[3-(diethylamino)propyl]amino}-8-(2,6-difluorophenyl)-7-oxo-7,8-dihydropyrido[2,3-d]pyrimidin-4-yl]benzoic acid], with “active”; and `Cc1ccc(C(=O)NC(C)C)cc1-c1nc(NCc2ncc[nH]2)nc2c1ccc(=O)n2-c1c(F)cccc1F` [Example 74, 3-{8-(2,6-difluorophenyl)-2-[(1H-imidazol-2-ylmethyl)amino]-7-oxo-7,8-dihydropyrido[2,3-d]pyrimidin-4-yl}-4-methyl-N-(1-methylethyl)benzamide], with “active”.
On the same count and under the same terms, in the case of `Cc1ccc(C(=O)NC2CC2)cc1-c1nc(NC(CO)CO)nc2c1ccc(=O)n2-c1c(F)cccc1F` [Example 36, N-cyclopropyl-3-(8-(2,6-difluorophenyl)-2-{[2-hydroxy-1-(hydroxymethyl)ethyl]-amino}-7-oxo-7,8-dihydropyrido[2,3-d]pyrimidin-4-yl)-4-methylbenzamide] it was “active”.
Same read-out and setting: in the case of `CCN(CC)CCCNc1nc(-c2cccc(C(=O)Nc3nccs3)c2C)c2ccc(=O)n(-c3c(F)cccc3F)c2n1` [150(d), 3-[2-{[3-(diethylamino)propyl]amino}-8-(2,6-difluorophenyl)-7-oxo-7,8-dihydropyrido[2,3-d]pyrimidin-4-yl]-2-methyl-N-1,3-thiazol-2-ylbenzamide] it was “active”; in that of `Cc1ccc(NC(=O)c2cccs2)cc1-c1nc(NCc2ncc[nH]2)nc2c1ccc(=O)n2-c1c(F)cccc1F` [Example 10, N-(3-{8-(2,6-difluorophenyl)-2-[(1H-imidazol-2-ylmethyl)amino]-7-oxo-7,8-dihydropyrido[2,3-d]pyrimidin-4-yl}-4-methylphenyl)-2-thiophenecarboxamide], “active”.
For the compound `CNC1CCN(c2nc(-c3cc(C(=O)Nc4ccc(F)cc4)ccc3C)c3ccc(=O)n(-c4c(F)cccc4F)c3n2)CC1` [114(b), 3-{8-(2,6-difluorophenyl)-2-[4-(methylamino)-1-piperidinyl]-7-oxo-7,8-dihydropyrido[2,3-d]pyrimidin-4-yl}-N-(4-fluorophenyl)-4-methylbenzamide], in assay [1], the “pIC50, reported as active” value is “active”.
Turning to `CCN(CC)CCCNc1nc(-c2cc(C(=O)NC(C)C)cc(F)c2C)c2ccc(=O)n(-c3c(F)cccc3F)c2n1` [179(c), 3-[2-{[3-(diethylamino)propyl]amino}-8-(2,6-difluorophenyl)-7-oxo-7,8-dihydropyrido[2,3-d]pyrimidin-4-yl]-5-fluoro-4-methyl-N-(1-methylethyl)benzamide], the “pIC50, reported as active” value in assay [1] is reported as “active”.
Still for that read-out and setting: in the case of `Cc1ccc(C(=O)O)cc1-c1nc(N2CCC(N3CCC(C)CC3)CC2)nc2c1ccc(=O)n2-c1c(F)cccc1F` [163(b), 3-[8-(2,6-difluorophenyl)-2-(4-methyl-1,4′-bipiperidin-1′-yl)-7-oxo-7,8-dihydropyrido[2,3-d]pyrimidin-4-yl]-4-methylbenzoic acid] it was “active”; in that of `CCN(CC)CCCNc1nc(-c2cc(C(=O)NC(C)C)ccc2C)c2ccc(=O)n(-c3c(F)cccc3F)c2n1` [118(b), 3-[2-{[3-(diethylamino)propyl]amino}-8-(2,6-difluorophenyl)-7-oxo-7,8-dihydropyrido[2,3-d]pyrimidin-4-yl]-4-methyl-N-(1-methylethyl)benzamide], “active”; in that of `CCN(CC)CCCNc1nc(-c2cc(C(=O)O)ccc2C)c2ccc(=O)n(-c3c(F)cccc3F)c2n1` [118(a), 3-[2-{[3-(diethylamino)propyl]amino}-8-(2,6-difluorophenyl)-7-oxo-7,8-dihydropyrido[2,3-d]-pyrimidin-4-yl]-4-methylbenzoic acid], “active”.
The same measure, in the same setting: then `CCCNC(=O)c1ccc(-c2nc(NCCCN(CC)CC)nc3c2ccc(=O)n3-c2c(F)cccc2F)cc1` [188(b), 4-[2-{[3-(diethylamino)propyl]amino}-8-(2,6-difluorophenyl)-7-oxo-7,8-dihydropyrido[2,3-d]pyrimidin-4-yl]-N-propylbenzamide], with “active”.
Consider `Cc1ccc(C(=O)NC2CCCC2)cc1-c1nc(N2CCC(N)CC2)nc2c1ccc(=O)n2-c1c(F)cccc1F` [Example 70, 3-[2-(4-amino-1-piperidinyl)-8-(2,6-difluorophenyl)-7-oxo-7,8-dihydropyrido[2,3-d]pyrimidin-4-yl]-N-cyclopentyl-4-methylbenzamide], for which the “inhibition of neutrophilia (neutrophil levels in lung lavage relative to no compound controls)” value in assay [2] is “statistically nonsignificant inhibition”.

The record behind these values is US8207176B2 (Glaxo Group Limited, priority 2005, dated 2012).
